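Interpolation was linear, between the two tested concentrations surrounding the appropriate level; five concentrations were tested over 48 hours in 96-well plates. The concentration for 50% growth inhibition is given as GI50. The concentration for full growth arrest is given as TGI.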
What was measured:
Test in all cases: NCI-60 cell line screen, 48 h
786-0 renal = system: 786-0 renal
A498 renal = system: A498 renal
A549 NSCLC = system: A549 NSCLC
ACHN renal = system: ACHN renal
BT-549 breast = system: BT-549 breast
CCRF-CEM leukemia = system: CCRF-CEM leukemia
COLO 205 colon = system: COLO 205 colon
DU-145 prostate = system: DU-145 prostate
EKVX NSCLC = system: EKVX NSCLC
HCC-2998 colon = system: HCC-2998 colon
HCT-116 colon = system: HCT-116 colon
HCT-15 colon = system: HCT-15 colon
HL-60(TB) leukemia = system: HL-60(TB) leukemia
HOP-62 NSCLC = system: HOP-62 NSCLC
HOP-92 NSCLC = system: HOP-92 NSCLC
HS 578T breast = system: HS 578T breast
HT29 colon = system: HT29 colon
IGROV1 ovarian = system: IGROV1 ovarian
K-562 leukemia = system: K-562 leukemia
KM12 colon = system: KM12 colon
LOX IMVI melanoma = system: LOX IMVI melanoma
M14 melanoma = system: M14 melanoma
MALME-3M melanoma = system: MALME-3M melanoma
MCF7 breast = system: MCF7 breast
MDA-MB-231 breast = system: MDA-MB-231 breast
MDA-MB-435 = system: MDA-MB-435
MOLT-4 leukemia = system: MOLT-4 leukemia
NCI-H226 lung = system: NCI-H226 lung
NCI-H23 lung = system: NCI-H23 lung
NCI-H460 lung = system: NCI-H460 lung
NCI-H522 lung = system: NCI-H522 lung
NCI/ADR-RES ovarian = system: NCI/ADR-RES ovarian
OVCAR-3 ovarian = system: OVCAR-3 ovarian
OVCAR-4 ovarian = system: OVCAR-4 ovarian
OVCAR-5 ovarian = system: OVCAR-5 ovarian
OVCAR-8 ovarian = system: OVCAR-8 ovarian
PC-3 prostate = system: PC-3 prostate
RPMI-8226 leukemia = system: RPMI-8226 leukemia
RXF 393 renal = system: RXF 393 renal
SF-268 CNS = system: SF-268 CNS
SF-295 CNS = system: SF-295 CNS
SF-539 CNS = system: SF-539 CNS
SK-MEL-2 melanoma = system: SK-MEL-2 melanoma
SK-MEL-28 melanoma = system: SK-MEL-28 melanoma
SK-MEL-5 melanoma = system: SK-MEL-5 melanoma
SK-OV-3 ovarian = system: SK-OV-3 ovarian
SN12C renal = system: SN12C renal
SNB-19 CNS = system: SNB-19 CNS
SNB-75 CNS = system: SNB-75 CNS
SR leukemia = system: SR leukemia
SW-620 colon = system: SW-620 colon
T-47D breast = system: T-47D breast
TK-10 renal = system: TK-10 renal
U251 CNS = system: U251 CNS
UACC-257 melanoma = system: UACC-257 melanoma
UACC-62 melanoma = system: UACC-62 melanoma
UO-31 renal = system: UO-31 renal

C=CCCCC(=O)CCC(=O)OCC1O[C@@H](O[C@@H]2C(O)[C@@H](OC(C)=O)C(C)O[C@H]2O[C@H](CC=C)CCCCC)C(O)[C@@H](OC(=O)/C(C)=C/C)[C@@H]1OC(=O)/C=C/c1ccccc1 (some centres not stated) gave a GI50 (786-0 renal) of 316 nM, a TGI (786-0 renal) of over 50 µM and a GI50 (A498 renal) of 612 nM. It also gave a TGI (A498 renal) of over 50 µM, a GI50 (A549 NSCLC) of 34.5 nM and a TGI (A549 NSCLC) of over 50 µM. For the same compound, the GI50 (ACHN renal) was 151 nM, the TGI (ACHN renal) was over 50 µM and the GI50 (BT-549 breast) was 345 nM. For the same compound, the TGI (BT-549 breast) was over 50 µM, the GI50 (CCRF-CEM leukemia) was 551 nM and the TGI (CCRF-CEM leukemia) was over 50 µM. It also gave a GI50 (COLO 205 colon) of 88 nM, a TGI (COLO 205 colon) of 1550 nM and a GI50 (DU-145 prostate) of 292 nM. It also gave a TGI (DU-145 prostate) of over 50 µM, a GI50 (EKVX NSCLC) of 428 nM and a TGI (EKVX NSCLC) of over 50 µM. The GI50 (HCC-2998 colon) was 1080 nM, the TGI (HCC-2998 colon) was over 50 µM and the GI50 (HCT-116 colon) was 26.2 nM. It also gave a TGI (HCT-116 colon) of over 50 µM, a GI50 (HCT-15 colon) of 263 nM and a TGI (HCT-15 colon) of over 50 µM. It also gave a GI50 (HL-60(TB) leukemia) of 673 nM, a TGI (HL-60(TB) leukemia) of 3.34 µM and a GI50 (HOP-62 NSCLC) of 235 nM. For the same compound, the TGI (HOP-62 NSCLC) was over 50 µM, the GI50 (HOP-92 NSCLC) was 38.4 nM and the GI50 (HS 578T breast) was 131 nM. It also gave a TGI (HS 578T breast) of over 50 µM, a GI50 (HT29 colon) of 25.1 nM and a TGI (HT29 colon) of 3.06 µM. The GI50 (IGROV1 ovarian) was 280 nM, the TGI (IGROV1 ovarian) was over 50 µM and the GI50 (K-562 leukemia) was 267 nM. The TGI (K-562 leukemia) was over 50 µM, the GI50 (KM12 colon) was 142 nM and the TGI (KM12 colon) was over 50 µM. It also gave a GI50 (LOX IMVI melanoma) of 27.5 nM, a TGI (LOX IMVI melanoma) of 127 nM and a GI50 (M14 melanoma) of 63.3 nM. For the same compound, the GI50 (MALME-3M melanoma) was 871 nM, the TGI (MALME-3M melanoma) was over 50 µM and the GI50 (MCF7 breast) was 31.6 nM. The TGI (MCF7 breast) was over 50 µM, the GI50 (MDA-MB-231 breast) was 8.66 nM and the TGI (MDA-MB-231 breast) was 30.9 nM. It also gave a GI50 (MDA-MB-435) of 21.6 nM, a TGI (MDA-MB-435) of over 50 µM and a GI50 (MOLT-4 leukemia) of 2090 nM. It also gave a TGI (MOLT-4 leukemia) of over 50 µM, a GI50 (NCI-H226 lung) of 564 nM and a TGI (NCI-H226 lung) of over 50 µM. The GI50 (NCI-H23 lung) was 995 nM, the TGI (NCI-H23 lung) was over 50 µM and the GI50 (NCI-H460 lung) was 65.6 nM. The TGI (NCI-H460 lung) was over 50 µM, the GI50 (NCI-H522 lung) was 248 nM and the TGI (NCI-H522 lung) was over 50 µM. It also gave a GI50 (NCI/ADR-RES ovarian) of 1920 nM, a TGI (NCI/ADR-RES ovarian) of over 50 µM and a GI50 (OVCAR-3 ovarian) of 290 nM. For the same compound, the TGI (OVCAR-3 ovarian) was over 50 µM, the GI50 (OVCAR-4 ovarian) was 2290 nM and the TGI (OVCAR-4 ovarian) was over 50 µM. The GI50 (OVCAR-5 ovarian) was 1440 nM, the TGI (OVCAR-5 ovarian) was over 50 µM and the GI50 (OVCAR-8 ovarian) was 173 nM. The TGI (OVCAR-8 ovarian) was over 50 µM, the GI50 (PC-3 prostate) was 198 nM and the TGI (PC-3 prostate) was over 50 µM. The GI50 (RPMI-8226 leukemia) was 180 nM, the TGI (RPMI-8226 leukemia) was 3.26 µM and the GI50 (RXF 393 renal) was 76.6 nM. It also gave a TGI (RXF 393 renal) of over 50 µM, a GI50 (SF-268 CNS) of 505 nM and a TGI (SF-268 CNS) of over 50 µM. For the same compound, the GI50 (SF-295 CNS) was 14.4 nM, the TGI (SF-295 CNS) was 5.51 µM and the GI50 (SF-539 CNS) was 54.6 nM. It also gave a TGI (SF-539 CNS) of 12.3 µM, a GI50 (SK-MEL-2 melanoma) of 609 nM and a TGI (SK-MEL-2 melanoma) of over 14.7 µM. It also gave a GI50 (SK-MEL-28 melanoma) of 340 nM, a TGI (SK-MEL-28 melanoma) of over 50 µM and a GI50 (SK-MEL-5 melanoma) of 35.2 nM. It also gave a TGI (SK-MEL-5 melanoma) of 517 nM, a GI50 (SK-OV-3 ovarian) of 959 nM and a TGI (SK-OV-3 ovarian) of over 50 µM. For the same compound, the GI50 (SN12C renal) was 88.1 nM, the TGI (SN12C renal) was 2110 nM and the GI50 (SNB-19 CNS) was 518 nM. The TGI (SNB-19 CNS) was over 50 µM, the GI50 (SNB-75 CNS) was 13.3 nM and the TGI (SNB-75 CNS) was over 28 µM. The GI50 (SR leukemia) was 142 nM, the TGI (SR leukemia) was 1830 nM and the GI50 (SW-620 colon) was 122 nM. It also gave a TGI (SW-620 colon) of over 50 µM, a GI50 (T-47D breast) of 27.3 nM and a TGI (T-47D breast) of 1210 nM. The GI50 (TK-10 renal) was 106 nM, the TGI (TK-10 renal) was over 50 µM and the GI50 (U251 CNS) was 29.7 nM. For the same compound, the TGI (U251 CNS) was over 50 µM, the GI50 (UACC-257 melanoma) was 79.1 nM and the TGI (UACC-257 melanoma) was 8.11 µM. It also gave a GI50 (UACC-62 melanoma) of 190 nM, a TGI (UACC-62 melanoma) of 5.62 µM and a GI50 (UO-31 renal) of 33 nM. It also gave a TGI (UO-31 renal) of over 50 µM.
